Measurements published in article PMC6149995 (2017).

Key:
[1] = test system: FmycT (DNA, G4) TTGAGGGTGGGTAGGGTGGGTAA; assay: FRET melting; details: 1 mM K+, 99 mM Li+; 10 mM lithium cacodylate pH 7.2; 1 µM ligand, 0.2 µM DNA; limit stated for all other cases
[2] = test system: Myc2345-Pu22 (DNA, G4) TGAGGGTGGGTAGGGTGGGTAA; assay: fluorescence titration (ligand quenching, Hill fit); details: 100 mM K+; 10 mM lithium cacodylate pH 7.2, r.t., 0.5 µM ligand, DNA titrated
[3] = test system: 22AG (DNA, G4) AGGGTTAGGGTTAGGGTTAGGG; assay: circular dichroism titration; details: 10 mM lithium cacodylate pH 7.2, 21 °C, 3 µM DNA
[4] = test system: ds26 (DNA, duplex) CAATCGGATCGAATTCGATCCGATTG; assay: fluorescence titration; details: K+ buffer; insignificant fluorescence reduction, fit unsuccessful; 0.5 µM ligand
[5] = test system: 22AG (DNA, G4) AGGGTTAGGGTTAGGGTTAGGG; assay: fluorescence titration (ligand quenching, Hill fit); details: 10 mM lithium cacodylate pH 7.2, r.t., 0.5 µM ligand, DNA titrated
[6] = test system: F21T (DNA, G4) GGGTTAGGGTTAGGGTTAGGG; assay: FRET melting; details: 90 mM Li+, 10 mM lithium cacodylate pH 7.2, 1 µM ligand, 0.2 µM DNA, limit stated for all other cases
[7] = 100 mM K+, 0-5 equiv ligand, conversion to antiparallel
[8] = 100 mM Na+, slightly reduced helicity, antiparallel kept

ΔTm [1] [°C]	KD [2]	binding [3, 7]	binding [3, 8]	binding [4]	KD ([5]; 100 mM K+)	KD ([5]; 100 mM Na+)	ΔTm ([6]; 10 mM K+) [°C]	ΔTm ([6]; 10 mM Na+) [°C]	binding ([3]; 100 mM K+, needs more equivalents to rearrange)	Structure (SMILES)
< 3	(1.9 ± 0.1) × 10^−7 M^−1	yes	yes	no	(5.0 ± 0.3) × 10^−7 M^−1	(0.6 ± 0.0) × 10^−7 M^−1	–	–	–	c1ccc(-c2cnc(-c3cccc(-c4cnc(-c5cccc(-c6cnc(-c7ccccn7)o6)n5)o4)n3)o2)nc1
< 3	(1.7 ± 0.1) × 10^−7 M^−1	yes	yes	no	(2.2 ± 0.1) × 10^−7 M^−1	(0.8 ± 0.1) × 10^−7 M^−1	–	–	–	c1ccc(-c2cnc(-c3cccc(-c4cnc(-c5cccc(-c6cnco6)n5)o4)n3)o2)nc1
< 3	(4.8 ± 0.3) × 10^−7 M^−1	–	yes	no	(3.2 ± 0.1) × 10^−7 M^−1	(7.2 ± 0.8) × 10^−7 M^−1	< 3	< 3	yes	c1ccc(-c2cnc(-c3cccc(-c4cnc(-c5ccccn5)o4)n3)o2)nc1
